Measured values: PubChem BioAssay (NCI)
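Abbreviation: GI50, concentration required for 50% inhibition of growth. TGI marks complete inhibition of growth.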

How the values were obtained:
Assay in all cases: NCI-60 cell line screen, 384-well format
BT-549 breast = system: BT-549 breast
SF-539 CNS = system: SF-539 CNS
SW-620 colon = system: SW-620 colon
T-47D breast = system: T-47D breast
A549 NSCLC = system: A549 NSCLC
786-0 renal = system: 786-0 renal
RPMI-8226 leukemia = system: RPMI-8226 leukemia
SK-MEL-5 melanoma = system: SK-MEL-5 melanoma
OVCAR-8 ovarian = system: OVCAR-8 ovarian
NCI-H322M lung = system: NCI-H322M lung
HCC-2998 colon = system: HCC-2998 colon
ACHN renal = system: ACHN renal
SK-OV-3 ovarian = system: SK-OV-3 ovarian
TK-10 renal = system: TK-10 renal
CCRF-CEM leukemia = system: CCRF-CEM leukemia
HL-60(TB) leukemia = system: HL-60(TB) leukemia
HCT-15 colon = system: HCT-15 colon
KM12 colon = system: KM12 colon
MALME-3M melanoma = system: MALME-3M melanoma
HOP-92 NSCLC = system: HOP-92 NSCLC
UACC-62 melanoma = system: UACC-62 melanoma
MOLT-4 leukemia = system: MOLT-4 leukemia
UACC-257 melanoma = system: UACC-257 melanoma
SK-MEL-28 melanoma = system: SK-MEL-28 melanoma
SR leukemia = system: SR leukemia
NCI-H226 lung = system: NCI-H226 lung
MDA-MB-468 breast = system: MDA-MB-468 breast
SNB-19 CNS = system: SNB-19 CNS
DU-145 prostate = system: DU-145 prostate
PC-3 prostate = system: PC-3 prostate
MDA-MB-435 melanoma = system: MDA-MB-435 melanoma
HCT-116 colon = system: HCT-116 colon
SF-268 CNS = system: SF-268 CNS
COLO 205 colon = system: COLO 205 colon
SN12C renal = system: SN12C renal
K-562 leukemia = system: K-562 leukemia
NCI-H460 NSCLC = system: NCI-H460 NSCLC
M14 melanoma = system: M14 melanoma
MCF7 breast = system: MCF7 breast
NCI-H23 lung = system: NCI-H23 lung
IGROV1 ovarian = system: IGROV1 ovarian
SK-MEL-2 melanoma = system: SK-MEL-2 melanoma
A498 renal = system: A498 renal
SF-295 CNS = system: SF-295 CNS
OVCAR-5 ovarian = system: OVCAR-5 ovarian
NCI-H522 lung = system: NCI-H522 lung
CAKI-1 renal = system: CAKI-1 renal
RXF 393 renal = system: RXF 393 renal
UO-31 renal = system: UO-31 renal
HT29 colon = system: HT29 colon
OVCAR-4 ovarian = system: OVCAR-4 ovarian
HOP-62 NSCLC = system: HOP-62 NSCLC
LOX IMVI melanoma = system: LOX IMVI melanoma
U251 glioblastoma = system: U251 glioblastoma
NCI/ADR-RES ovarian = system: NCI/ADR-RES ovarian

C/C(=N\NC(=O)c1cccc(S(=O)(=O)N2CCN(C)CC2)c1)c1cc(Cl)ccc1O was tested, and the GI50 (BT-549 breast) was 0.351 µM, the TGI (BT-549 breast) was 4.19 µM and the GI50 (SF-539 CNS) was 0.442 µM. The TGI (SF-539 CNS) was 3.31 µM, the GI50 (SW-620 colon) was 1.64 µM and the TGI (SW-620 colon) was 19 µM. For the same compound, the GI50 (T-47D breast) was 0.657 µM, the TGI (T-47D breast) was 9.27 µM and the GI50 (A549 NSCLC) was 0.447 µM. For the same compound, the TGI (A549 NSCLC) was greater than 100 µM, the GI50 ([…]-0 renal) was 0.345 µM and the TGI (786-0 renal) was 2.21 µM. It also gave a GI50 (RPMI-8226 leukemia) of 0.339 µM, a TGI (RPMI-8226 leukemia) of 1.18 µM and a GI50 (SK-MEL-5 melanoma) of 0.062 µM. It also gave a TGI (SK-MEL-5 melanoma) of 0.441 µM, a GI50 (OVCAR-8 ovarian) of 0.477 µM and a TGI (OVCAR-8 ovarian) of 1.95 µM. It also gave a GI50 (NCI-H322M lung) of 0.231 µM, a TGI (NCI-H322M lung) of 32 µM and a GI50 (HCC-2998 colon) of 0.0545 µM. The TGI (HCC-2998 colon) was 15 µM, the GI50 (ACHN renal) was 0.627 µM and the TGI (ACHN renal) was 13.4 µM. It also gave a GI50 (SK-OV-3 ovarian) of 0.422 µM, a TGI (SK-OV-3 ovarian) of 57.2 µM and a GI50 (TK-10 renal) of 0.642 µM. For the same compound, the TGI (TK-10 renal) was 19.8 µM, the GI50 (CCRF-CEM leukemia) was 0.216 µM and the TGI (CCRF-CEM leukemia) was 1.07 µM. For the same compound, the GI50 (HL-60(TB) leukemia) was 0.442 µM, the TGI (HL-60(TB) leukemia) was 1.22 µM and the GI50 (HCT-15 colon) was 0.301 µM. It also gave a TGI (HCT-15 colon) of 12.9 µM, a GI50 (KM12 colon) of 0.541 µM and a TGI (KM12 colon) of 14.7 µM. It also gave a GI50 (MALME-3M melanoma) of 0.641 µM, a TGI (MALME-3M melanoma) of 8.52 µM and a GI50 (HOP-92 NSCLC) of 0.573 µM. The TGI (HOP-92 NSCLC) was 6.82 µM, the GI50 (UACC-62 melanoma) was 0.544 µM and the TGI (UACC-62 melanoma) was 2.86 µM. For the same compound, the GI50 (MOLT-4 leukemia) was 0.114 µM, the TGI (MOLT-4 leukemia) was 0.24 µM and the GI50 (UACC-257 melanoma) was 0.521 µM. For the same compound, the TGI (UACC-257 melanoma) was 3.98 µM, the GI50 (SK-MEL-28 melanoma) was 0.134 µM and the TGI (SK-MEL-28 melanoma) was 14.3 µM. For the same compound, the GI50 (SR leukemia) was 0.144 µM, the TGI (SR leukemia) was 0.287 µM and the GI50 (NCI-H226 lung) was 0.523 µM. The TGI (NCI-H226 lung) was 3.45 µM, the GI50 (MDA-MB-468 breast) was 0.177 µM and the TGI (MDA-MB-468 breast) was 0.382 µM. The GI50 (SNB-19 CNS) was 1.06 µM, the TGI (SNB-19 CNS) was 6.02 µM and the GI50 (DU-145 prostate) was 0.534 µM. It also gave a TGI (DU-145 prostate) of 11.6 µM, a GI50 (PC-3 prostate) of 1.16 µM and a TGI (PC-3 prostate) of 17.4 µM. The GI50 (MDA-MB-435 melanoma) was 0.557 µM, the TGI (MDA-MB-435 melanoma) was 74.2 µM and the GI50 (HCT-116 colon) was 0.425 µM. It also gave a TGI (HCT-116 colon) of 2.02 µM, a GI50 (SF-268 CNS) of 0.141 µM and a TGI (SF-268 CNS) of 2.15 µM. It also gave a GI50 (COLO 205 colon) of 0.236 µM, a TGI (COLO 205 colon) of 0.594 µM and a GI50 (SN12C renal) of 0.735 µM. It also gave a TGI (SN12C renal) of 3.36 µM, a GI50 (K-562 leukemia) of 2.62 µM and a TGI (K-562 leukemia) of 13.8 µM. The GI50 (NCI-H460 NSCLC) was 0.296 µM, the TGI (NCI-H460 NSCLC) was 1.21 µM and the GI50 (M14 melanoma) was 0.247 µM. For the same compound, the TGI (M14 melanoma) was 1.99 µM, the GI50 (MCF7 breast) was 0.594 µM and the TGI (MCF7 breast) was 8.01 µM. The GI50 (NCI-H23 lung) was 0.236 µM, the TGI (NCI-H23 lung) was 0.59 µM and the GI50 (IGROV1 ovarian) was 0.339 µM. For the same compound, the TGI (IGROV1 ovarian) was 2.75 µM, the GI50 (SK-MEL-2 melanoma) was 0.567 µM and the TGI (SK-MEL-2 melanoma) was 3.58 µM. For the same compound, the GI50 (A498 renal) was 0.268 µM, the TGI (A498 renal) was 20.1 µM and the GI50 (SF-295 CNS) was 0.25 µM. It also gave a TGI (SF-295 CNS) of 1.31 µM, a GI50 (OVCAR-5 ovarian) of 0.455 µM and a TGI (OVCAR-5 ovarian) of 35.3 µM. It also gave a GI50 (NCI-H522 lung) of 0.471 µM, a TGI (NCI-H522 lung) of 12 µM and a GI50 (CAKI-1 renal) of 0.472 µM. For the same compound, the TGI (CAKI-1 renal) was 10.2 µM, the GI50 (RXF 393 renal) was 0.043 µM and the TGI (RXF 393 renal) was 0.557 µM. The GI50 (UO-31 renal) was 0.489 µM, the TGI (UO-31 renal) was 8.09 µM and the GI50 (HT29 colon) was 0.439 µM. The TGI (HT29 colon) was 13.6 µM, the GI50 (OVCAR-4 ovarian) was 0.201 µM and the TGI (OVCAR-4 ovarian) was 29 µM. It also gave a GI50 (HOP-62 NSCLC) of 0.142 µM, a TGI (HOP-62 NSCLC) of 0.898 µM and a GI50 (LOX IMVI melanoma) of 0.644 µM. It also gave a TGI (LOX IMVI melanoma) of 2.03 µM, a GI50 (U251 glioblastoma) of 0.478 µM and a TGI (U251 glioblastoma) of 8.25 µM. For the same compound, the GI50 (NCI/ADR-RES ovarian) was 0.777 µM and the TGI (NCI/ADR-RES ovarian) was 2.36 µM.
